Test results as given in paper PMC10952689 (Angewandte Chemie (International Ed. in English), 2023).

Target: T1, human TRPV1 (Homo sapiens, UniProt Q8NER1)
T1 construct: expressed in transfected cells
Format: cell-based
Method: Oocytes were held at −60 mV and data normalised to currents elicited by 10 μM capsaicin. (D) Reversibility of DkTx and Y35G evoked rat TRPV1 response at the indicated peptide concentrations using TEVC oocytes. Data points represent the fraction of currents remaining during the washout as a ratio to the maximal current evoked by each sample. (E) Washout shown as fractional current determined by whole‐cell patch clamp recordings from HEK293 cells expressing TRPV1 (voltage‐clamped at −80 mV). […] The time constant for decay was not fitted and calculated in panels D and E, as it could not be accurately determined for data sets with minimal washout over the experimental time course. All data are mean ± standard error of the mean (n=5–7).

T1 sequence (Q8NER1 whole entry): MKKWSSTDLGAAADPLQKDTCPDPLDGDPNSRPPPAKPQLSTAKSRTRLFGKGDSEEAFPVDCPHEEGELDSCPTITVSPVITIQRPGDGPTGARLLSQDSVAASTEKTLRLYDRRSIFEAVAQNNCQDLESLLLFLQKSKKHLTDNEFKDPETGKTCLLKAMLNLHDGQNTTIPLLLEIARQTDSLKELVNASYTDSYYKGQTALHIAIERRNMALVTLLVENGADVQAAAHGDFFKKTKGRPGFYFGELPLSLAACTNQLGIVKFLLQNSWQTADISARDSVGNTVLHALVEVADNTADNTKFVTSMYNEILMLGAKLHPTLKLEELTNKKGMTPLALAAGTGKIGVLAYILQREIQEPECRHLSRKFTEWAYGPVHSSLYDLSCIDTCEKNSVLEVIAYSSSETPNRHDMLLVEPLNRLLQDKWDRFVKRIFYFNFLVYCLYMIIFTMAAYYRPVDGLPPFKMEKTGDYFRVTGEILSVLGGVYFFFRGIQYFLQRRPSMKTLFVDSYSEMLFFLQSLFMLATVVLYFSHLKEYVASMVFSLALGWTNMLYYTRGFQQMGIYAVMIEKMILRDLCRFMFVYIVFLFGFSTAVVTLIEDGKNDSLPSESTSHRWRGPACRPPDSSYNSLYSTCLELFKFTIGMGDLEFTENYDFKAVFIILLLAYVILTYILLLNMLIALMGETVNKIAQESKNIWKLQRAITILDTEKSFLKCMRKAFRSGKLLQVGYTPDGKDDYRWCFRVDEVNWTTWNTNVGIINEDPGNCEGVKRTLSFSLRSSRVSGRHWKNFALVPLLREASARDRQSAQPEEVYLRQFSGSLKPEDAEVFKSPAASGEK

SMILES	reversibility of TRPV1 current upon washing	inhibition of iDkTx-evoked currents (10 μM ruthenium red against 2 μM iDkTx, +80 mV, HEK293, Figure 1E–F)
COc1cc(CNC(=O)CCCC/C=C/C(C)C)ccc1O [capsaicin]	rapidly reversible upon washing	–
N.N.N.N.N.N.N.N.N.N.N.N.N.N.[Cl-].[Cl-].[Cl-].[Cl-].[Cl-].[Cl-].[O-2].[O-2].[Ru+3].[Ru+3].[Ru+4] [ruthenium red]	–	fully inhibited
